Where two headings read alike, the source gives them in different places.
Assays:
FABP7 = FABP7 (Homo sapiens, UniProt O15540); assay: NBD-stearate fluorescence displacement binding
Procedure: (§1) Inhibitory constant (Ki) values were elucidated utilizing NBD-stearate fluorescence displacement as described previously [9], [31]. The tests were performed in 96-well plates containing inhibitors (0.1 – 50.0 μM), FABP, and NBD-stearate. Fluorescence intensity was measured with a FLUOstar OPTIMA spectrofluorometer with excitation and emission wavelengths of 460 and 544 nm, respectively.

[1] = system: rectal temperature in mice; assay: Rectal temperature; type: in vivo, mouse; settings: 20 mg/kg, i.p., baseline vs 90 min
Procedure: Rectal temperature was measured at baseline and 90 min following vehicle or drug administration, by inserting a thermocouple probe 1.5 cm into the rectum and the temperature was read using a thermocouple meter (Kent Scientific).

[2] = system: carrageenan-induced thermal hyperalgesia and paw edema in mice; assay: Carrageenan-induced paw edema and thermal hyperalgesia; type: in vivo, mouse; settings: 20 mg/kg, i.p.
Procedure: Paw edema was induced by injecting 1% λ-carrageenan (20 μl, in sterile saline) into the plantar surface of the left hind paw using a 30 gauge needle attached to a glass syringe (Hamilton Company). Paw diameters were measured before carrageenan injection and 4 or 24 hours after injection using digital electronic calipers (Fisher) and expressed to the nearest ± 0.01 mm. SBFI26, SBFI50, SBFI60, and SBFI62 were dissolved in DMSO:cremophor-EL:saline (4% DMSO:10% Cremophor-EL) and administered (20 mg/kg, i.p.) 60 min prior to injection of carrageenan. Receptor antagonists were injected 10 min before the inhibitors. Rimonabant and SR144528 (3 mg/kg, i.p.) were dissolved in ethanol:cremophor-EL:saline (1∶1∶18) while GW6471 (4 mg/kg, i.p.) was dissolved in DMSO:cremophor-EL:saline (2% DMSO:5% Cremophor-EL). Edema is reported as the change in paw diameter at 24 hr compared to the baseline. Thermal hyperalgesia was measured using the Hargreaves plantar apparatus (Ugo Basile) as previously reported.

CB1 = system: CB1; set-up: method as in PMID 23236415; settings: previously demonstrated ref 31; cited from earlier work
[3] = system: brain endocannabinoid levels; assay: Lipid quantification of brain NAEs and 2-AG; type: in vivo; settings: mouse, 20 mg/kg, i.p.
Procedure: Quantification of endogenous NAEs and 2-AG were performed as previously described with minor modifications. Mice were rapidly euthanized by decapitation and their brains flash frozen in liquid nitrogen. The brains were subsequently thawed, weighed, and homogenized in 8 ml of 2∶1∶1 CHCl3:MeOH:Tris (50 mM, pH 8) in the presence of 4 ng d4-PEA, 4 ng d2-OEA, 400 pg d4-AEA, and 40 ng d5-2-AG. Following centrifugation at 4°C, the organic layer was removed and brought up to 8 ml with the same buffer and centrifuged again. The resulting organic layer was dried down with argon and resuspended with 100 μl of 2∶1 CHCl3:MeOH and 10 μl was injected into the Thermo TSQ Quantum Access Triple Quadropole mass spectrometer. LC separation was achieved on a Gemini C18 (50×2 mm×5 μm) equipped with a Gemini C18 SecurityGuard precolumn (4 mm length ×2 mm internal diameter). Mobile phase A consisted of 95∶5% v:v H20:MeOH while mobile phase B was composed of 60∶35∶5 v:v:v i-PrOH:MeOH:H2O and quantification was performed in the positive ion mode with the voltage set at 4 kV. 0.1% formic acid was added to assist in ionization. The sheath pressure was 30 and the capillary was set at 270 °C. The flow rate was 100 μl/min. The gradient started at 0% B and increased to 100% B over 15 min followed by an isocratic gradient of 100% B for 10 min, and was equilibrated for 15 min at 0% B.

[4] = system: formalin-induced nociception in mice; assay: Formalin test; type: in vivo, mouse; settings: 20 mg/kg, i.p.
Procedure: Mice were habituated to the observation chamber (Plexiglas box, 25 cm×25 cm×25 cm) for 30 min prior to formalin injection. Mice were administered FABP inhibitors 60 min prior to formalin. The animals subsequently received an injection of formalin (2.5% in saline, 20 μl) into the plantar surface of the right hind paw using a 30 gauge needle and were immediately placed back into the observation chamber and nocifensive behavior (time spent licking or biting the paw) was recorded for 60 min. Nocifensive behavior was scored during the first phase (0–5 min) and the second phase (∼15–45 min) of the formalin test.

[5] = Pharmacokinetics: SBFI26 levels in plasma and brain; type: in vivo; settings: mouse, 20 mg/kg, i.p.; for half-life: ip
Procedure: Mice were injected with SBFI26 (20 mg/kg, i.p.) and were subsequently rapidly euthanized by decapitation at the indicated time points. The brain was rapidly removed and submerged in liquid nitrogen while the blood was collected into a K2-EDTA collection tube (Fisher). Plasma was isolated by centrifugation of the blood and 50 μl of the plasma was combined with 150 μl acetonitrile and centrifuged to remove the resulting protein pellet. Subsequently, 50 μl of water was added to 50 μl of the supernatant and 10 μl was injected for analysis into a Thermo TSQ Quantum Access Triple Quadrupole mass spectrometer (ThermoFisher). LC separation was achieved on a Luna C18 (150×2 mm) column. Mobile phase A consisted of 100% H20 while mobile phase B was composed of 100% acetonitrile. The flow rate was 200 μl/min. A linear gradient was used and started at 50% B for 2 min, then ramped to 100% B in 8 min., with a 2 min hold at 100% B. The system was then equilibrated at 50% B for a cycle time of 20 min. The mass spectrometer was operated in the negative ion mode with the high voltage set at −3.5 kV. The sheath pressure was 20 and the capillary was set to 270 °C. Multiple reaction monitoring (MRM) was used with the transition m/z 421 to 277 at 29 eV as the quantitation channel, while m/z 421 to 205 at 17 eV was employed as a conformation channel. SBFI26 quantification was performed using an external calibration curve.

HeLa cells = assay: Cytotoxicity, MTT colorimetric assay; type: cell-based; settings: 24 hr incubation, n = 3
Procedure: Cytotoxicity of the FABP inhibitors SBFI26 and BMS309403 were examined using the MTT [3-(4,5-dimethylthiazol-2-yl)-2,5 diphenyl tetrazolium bromide] colorimetric assay. HeLa cells were seeded into 96-well plates (15,000 cells/well) and incubated for 24 hours at 37°C in DMEM supplemented with 10% FBS, penicillin (100 U/mL) and streptomycin (100 μg/mL). The cells were subsequently washed with PBS and treated with serum-free DMEM containing 10 nM to 1 mM SBFI26, BMS309403, or 5 mM hydrogen peroxide as a positive control. Following a 24 hr incubation, the cells were washed with PBS and treated with MTT (0.5 mg/mL in PBS) for 4 hrs. The cells were subsequently solubilized using DMSO and the absorbance was read at 562 nm in a microplate reader.

FABP3 = FABP3 (Homo sapiens, UniProt P05413); assay: NBD-stearate fluorescence displacement binding
Chain of FABP3 (P05413 whole entry, species assumed): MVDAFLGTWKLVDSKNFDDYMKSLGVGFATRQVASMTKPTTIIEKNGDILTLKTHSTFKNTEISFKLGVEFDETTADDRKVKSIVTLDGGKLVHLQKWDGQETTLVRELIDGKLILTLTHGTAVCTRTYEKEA
Procedure: as §1

Chain of FABP7 (O15540 whole entry, species assumed): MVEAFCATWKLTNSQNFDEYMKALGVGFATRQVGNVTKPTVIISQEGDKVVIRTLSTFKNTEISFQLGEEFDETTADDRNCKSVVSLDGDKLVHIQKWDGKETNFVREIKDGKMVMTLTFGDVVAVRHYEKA

- Ki (FABP7): 400 nM
- Rectal temperature [1]: does not reduce
- half-life ([5]; brain, read-out: Brain half-life (converted)): ~3 h
- Brain levels relative to plasma levels [5]: lower
- Time of peak brain level ([5]; brain): within one hour
- Time of peak plasma level ([5]; plasma): within one hour
- Time by which levels return to baseline ([5]; plasma and brain): ≤ 24 h
- half-life ([5]; plasma, read-out: Plasma half-life (converted)): ~3 h
- Ki (FABP3): 3900 ± 700 nM
Compound: O=C(O)C1C(c2ccccc2)C(C(=O)Oc2cccc3ccccc23)C1c1ccccc1 (stereo not drawn) [SBFI26, alpha-2,4-diphenylcyclobutane-1,3-dicarboxylic acid mono-1-naphthyl ester]
- Effect upon carrageenan-induced paw edema [2]: reduced
- Effect upon carrageenan-induced thermal hyperalgesia [2]: reduced
- Activation of CB1 (CB1): does not activate
- Brain 2-AG levels ([3]; 90 min): unaffected
- Brain OEA levels ([3]; 90 min): unaffected
- Brain PEA levels ([3]; 90 min): unaffected
- Brain AEA levels ([3]; tissues harvested 90 min after administration): significantly elevated
- Effect upon first phase of formalin-induced nociception ([4]; first phase 0–5 min): reduced
- Effect upon second phase of formalin-induced nociception ([4]; second phase ∼15–45 min): reduced
- Cytotoxicity _50 values (HeLa cells): 31.1 ± 4.1 µM

Reference: publication PMC3976407, “Inhibition of Fatty Acid Binding Proteins Elevates Brain Anandamide Levels and Produces Analgesia” (PLoS ONE, 2014)
